{"source": "paper PMC6245549", "about": "(Journal of medicinal chemistry, 2018)", "key": {"BRD4(1) [1]": {"biological_target": "T1, BRD4(1) (Homo sapiens, UniProt O60885)", "assay": "Fluorescence anisotropy, BRD4"}, "BRD4(2)": {"biological_target": "BRD4(2) (Homo sapiens, UniProt O60885)", "assay": "Fluorescence anisotropy, BRD4"}, "kinases": {"system": "kinases", "conditions": "100 nM; no reference given; cited from earlier work"}, "A549-NF-κB-luc cells": {"system": "A549-NF-κB-luc cells", "assay": "NF-κB luciferase reporter assay"}, "BRD4(1) [2]": {"biological_target": "T1, BRD4(1)", "assay": "Protein-observed fluorine NMR", "assay_type": "binding"}, "BRD4 D1": {"biological_target": "BRD4 D1 (Homo sapiens, UniProt O60885)", "assay": "ALPHAScreen, BRD4 D1"}, "[3]": {"system": "MSK1 phosphorylation at T581", "assay": "Phosphorylation state of MSK1", "assay_type": "cell-based"}, "IL-8 [4]": {"system": "IL-8", "assay": "IL-8 ELISA", "assay_type": "cell-based", "conditions": "Homo sapiens, read-out: Inhibition of IL-8 cytokine production"}, "c-Myc": {"system": "c-Myc", "assay": "Western blot of c-Myc levels in MM.1S cells", "assay_type": "cell-based", "conditions": "6 h, concentrations approaching BRD4(1) Kd"}, "A549 cells": {"system": "A549 cells", "assay": "Cytotoxicity toward A549 cells", "assay_type": "cell-based"}, "BRD4(1) [5]": {"biological_target": "T1, BRD4(1)", "assay": "Isothermal-titration calorimetry", "assay_type": "binding"}, "p38α [6]": {"biological_target": "T2, p38α (Homo sapiens, UniProt Q16539)", "T2 sequence (Q16539 whole entry)": "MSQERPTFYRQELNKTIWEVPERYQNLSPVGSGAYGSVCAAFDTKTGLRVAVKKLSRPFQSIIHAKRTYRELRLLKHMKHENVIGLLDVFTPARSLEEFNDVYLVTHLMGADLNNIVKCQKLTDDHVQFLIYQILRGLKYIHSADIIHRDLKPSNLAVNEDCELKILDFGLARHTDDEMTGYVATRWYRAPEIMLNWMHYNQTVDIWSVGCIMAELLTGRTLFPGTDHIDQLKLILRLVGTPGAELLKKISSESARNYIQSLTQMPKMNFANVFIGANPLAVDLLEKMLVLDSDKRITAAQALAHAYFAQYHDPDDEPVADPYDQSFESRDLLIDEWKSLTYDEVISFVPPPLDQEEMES", "assay": "Cellular thermal-shift assay", "assay_type": "cell-based", "conditions": "A549 cells, isothermal denaturation, dose-dependent"}, "p38β": {"biological_target": "p38β (Homo sapiens, UniProt Q15759)", "sequence (Q15759 whole entry)": "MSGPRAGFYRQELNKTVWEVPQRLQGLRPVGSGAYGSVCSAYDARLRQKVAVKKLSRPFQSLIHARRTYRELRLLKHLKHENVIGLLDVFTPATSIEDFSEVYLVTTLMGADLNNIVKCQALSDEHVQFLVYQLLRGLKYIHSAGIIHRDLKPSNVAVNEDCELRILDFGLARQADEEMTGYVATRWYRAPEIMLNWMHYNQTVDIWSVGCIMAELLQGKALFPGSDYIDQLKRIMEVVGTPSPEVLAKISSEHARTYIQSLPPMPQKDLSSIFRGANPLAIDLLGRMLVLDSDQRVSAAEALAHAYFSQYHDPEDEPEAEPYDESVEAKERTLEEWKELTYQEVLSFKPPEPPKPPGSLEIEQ", "assay": "DiscoverX kinase-selectivity profiling, p38β", "assay_type": "binding", "conditions": "1 μM, DiscoverX platform"}, "p38α [7]": {"biological_target": "T2, p38α", "assay": "DiscoverX kinase-selectivity profiling, p38α", "assay_type": "binding", "conditions": "1 μM, DiscoverX platform"}, "BET D2s": {"system": "BET D2s", "assay": "DiscoverX bromodomain-selectivity profiling, BET D2s", "assay_type": "binding, human", "conditions": "10 μM"}, "BRDT(1)": {"biological_target": "BRDT(1) (Homo sapiens, UniProt Q58F21)", "assay": "Protein-observed fluorine NMR", "assay_type": "binding", "conditions": "50 μM 19F-labeled protein, W50"}, "[8]": {"system": "yeast GCN5-like malarial protein (pfGCN5)", "assay": "Protein-observed fluorine NMR", "assay_type": "binding"}, "BPTF": {"biological_target": "BPTF (Homo sapiens, UniProt Q12830)", "assay": "Protein-observed fluorine NMR", "assay_type": "binding"}, "IL-8 [9]": {"system": "IL-8", "conditions": "20 μM; cited from earlier work"}}, "data": [{"molecule": "Fc1ccc(-c2ncn(C3CCNCC3)c2-c2ccnc(Oc3cc(F)cc(F)c3)n2)cc1", "note": "[Compound VI, 2-(3,5-Difluorophenoxy)-4-(4-(4-fluorophenyl)-1-(piperidin-4-yl)-1H-imidazol-5-yl)pyrimidine]", "values": [{"measurement": "Binding to BRD4(1), in words", "setting": "BRD4(1) [1]", "result": "only bound weakly"}, {"measurement": "Binding to BRD4(2) / displacement of BI-BODIPY, in words", "setting": "BRD4(2)", "result": "only bound weakly"}]}, {"molecule": "C[S+]([O-])c1ccc(-c2nc(-c3ccc(F)cc3)c(-c3ccncc3)[nH]2)cc1", "note": "(centres unmarked) [SB203580]", "values": [{"measurement": "Kinase selectivity score", "setting": "kinases", "result": 0.024}]}, {"molecule": "NC(=O)c1ccc(N(C(N)=O)c2c(F)cccc2F)nc1-c1ccc(F)cc1F", "note": "[VX-702]", "values": [{"measurement": "Inhibition in NF-κB reporter assay, in words", "setting": "A549-NF-κB-luc cells", "result": "limited inhibitory effects"}]}, {"molecule": "Cc1cc(C)cc(Nc2nccc(-c3c(-c4ccc(F)cc4)nnn3C3CCNCC3)n2)c1", "note": "[VII, N-(3,5-Dimethylphenyl)-4-(4-(4-fluorophenyl)-1-(piperidin-4-yl)-1H-1,2,3-triazol-5-yl)pyrimidin-2-amine]", "values": [{"measurement": "Binding to BRD4(1) by PrOF NMR, in words", "setting": "BRD4(1) [2]", "result": "bound BRD4(1) in a manner similar to that of compound V"}]}, {"molecule": "Cc1cc(C)cc(Nc2nccc(-c3c(C)nnn3C3CCNCC3)n2)c1", "note": "[IX, N-(3,5-Dimethylphenyl)-4-(4-methyl-1-(piperidin-4-yl)-1H-1,2,3-triazol-5-yl)pyrimidin-2-amine]", "values": [{"measurement": "Enhancement of binding to BRD4(1) relative to VII", "setting": "BRD4 D1", "result": 20, "unit": "fold"}]}, {"molecule": "Cc1sc2c(c1C)C(c1ccc(Cl)cc1)=N[C@@H](CC(=O)OC(C)(C)C)c1nnc(C)n1-2", "note": "[(+)-JQ1, reference compound]", "values": [{"measurement": "MSK1 phosphorylation at T581, in words", "setting": "[3]", "result": "not observed"}, {"measurement": "inhibition at 1 µM", "setting": "IL-8 [4]", "result": 63, "unit": "%"}]}, {"molecule": "Cc1ccc(Nc2nccc(-c3c(-c4ccc(F)cc4)ncn3C3CCNCC3)n2)cc1C", "note": "[Compound IV, N-(3,4-Dimethylphenyl)-4-(4-(4-fluorophenyl)-1-(piperidin-4-yl)-1H-imidazol-5-yl)pyrimidin-2-amine]", "values": [{"measurement": "Expression of c-Myc oncoprotein, in words", "setting": "c-Myc", "result": "inhibited expression"}, {"measurement": "Concentration up to which cytotoxicity toward A549 cells is minimal", "setting": "A549 cells", "result": "≤ 25", "unit": "µM"}, {"measurement": "Entropy of binding in ITC", "setting": "BRD4(1) [5]", "result": 5.0, "unit": "cal/mol/°C"}, {"measurement": "MSK1 phosphorylation at T581, in words", "setting": "[3]", "result": "decrease in levels of MSK1 phosphorylation"}]}, {"molecule": "Cc1cc(C)cc(Nc2nccc(-c3c(-c4ccc(F)cc4)ncn3C3CCNCC3)n2)c1", "note": "[Compound V, N-(3,5-Dimethylphenyl)-4-(4-(4-fluorophenyl)-1-(piperidin-4-yl)-1H-imidazol-5-yl)pyrimidin-2-amine]", "values": [{"measurement": "Concentration above which p38α is stabilized (CETSA)", "setting": "p38α [6]", "result": "> 1", "unit": "nM"}, {"measurement": "Inhibitory activity against p38β, in words", "setting": "p38β", "result": "high inhibitory activity"}, {"measurement": "Inhibitory activity against p38α, in words", "setting": "p38α [7]", "result": "high inhibitory activity"}, {"measurement": "Inhibition of BET D2s, DiscoverX", "setting": "BET D2s", "result": "7−27%"}, {"measurement": "Expression of c-Myc oncoprotein, in words", "setting": "c-Myc", "result": "inhibited expression"}, {"measurement": "Small molecule needed to reach fully bound state of WPF-shelf resonance, BRDT(1)", "setting": "BRDT(1)", "result": "approximately 1 equiv."}, {"measurement": "Concentration up to which cytotoxicity toward A549 cells is minimal", "setting": "A549 cells", "result": "≤ 10", "unit": "µM"}, {"measurement": "MSK1 phosphorylation at T581, in words", "setting": "[3]", "result": "decrease in levels of MSK1 phosphorylation"}, {"measurement": "Binding to GCN5-like malarial protein by PrOF NMR, in words", "setting": "[8]", "result": "did not detect binding"}, {"measurement": "Binding to BPTF by PrOF NMR, in words", "setting": "BPTF", "result": "did not detect binding"}]}, {"molecule": "C=C1C(=O)O[C@H]2[C@H]1CC/C(C)=C/CC[C@@]1(C)O[C@@H]21", "note": "[parthenolide]", "values": [{"measurement": "IL-8 production, in words", "setting": "IL-8 [9]", "result": "decreased IL-8 production to baseline"}]}]}
